Data on 14 molecules can be found in PubChem BioAssay (NCI).

Test systems include MOLT-4 leukemia; HCT-15 colon; M14 melanoma; OVCAR-3 ovarian; ACHN renal; NCI-H226 lung; 786-0 renal; TK-10 renal; COLO 205 colon; SF-539 CNS; HL-60(TB) leukemia.
What all share (test): NCI anticancer screen, dose series, 48 h

The structures appear in SMILES notation.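 Protocol summary: plate cells (96-well), add compound at 5 concentrations, incubate 48 h, interpolate endpoints linearly. GI50: concentration for 50% inhibition of growth. TGI: total growth inhibition.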

For `COc1cc2c(cc1O)C(=O)O[C@@H]1CC=C3CCN(C)[C@H]3[C@H]21`, the TGI with MOLT-4 leukemia, in the experiment with HCT-15 colon, with M14 melanoma, in the experiment with OVCAR-3 ovarian, with ACHN renal and in the experiment on NCI-H226 lung was greater than 25 µM each time. In addition, the TGI with 786-0 renal and with TK-10 renal was greater than 25 µM each time.

As for `CCOC(=O)/C(=C\c1c(C)[nH]c2ccccc12)P(=O)(OCC)OCC`, the TGI in the experiment on MOLT-4 leukemia, in the experiment with HCT-15 colon, with COLO 205 colon, in the experiment with M14 melanoma, in the experiment with SF-539 CNS and in the experiment with OVCAR-3 ovarian was greater than 100 µM in each case. In addition, the TGI with ACHN renal, in the experiment on NCI-H226 lung, in the experiment on 786-0 renal and with TK-10 renal was greater than 100 µM each time.

With `CCOC(=O)c1ccn2c(c1)c(C#N)c1nc3ccccc3nc12`, the TGI with MOLT-4 leukemia is 50.6 µM; in the experiment on HCT-15 colon, greater than 100 µM; in the experiment on COLO 205 colon it was greater than 100 µM; in the experiment with M14 melanoma, greater than 100 µM; with SF-539 CNS, greater than 100 µM; in the experiment on OVCAR-3 ovarian, greater than 100 µM. Moreover, the TGI in the experiment with ACHN renal, in the experiment on 786-0 renal, in the experiment on TK-10 renal and with HL-60(TB) leukemia was greater than 100 µM throughout.

`COc1cc2c(cc1OC)[C@H]1C(COC(=O)Nc3ccccc3)CN1CC2` (some centres not stated): the TGI in the experiment on MOLT-4 leukemia, in the experiment on HCT-15 colon, in the experiment on COLO 205 colon, in the experiment on M14 melanoma, in the experiment on SF-539 CNS and with OVCAR-3 ovarian was greater than 100 µM throughout. The TGI with ACHN renal, with 786-0 renal, with TK-10 renal and in the experiment with HL-60(TB) leukemia was greater than 100 µM throughout.

Consider `Clc1ccc(N2N=C(c3cccc(Nc4ccncc4)c3)CC2c2ccc(Br)cc2)cc1` (configuration not stated), for which the GI50 was 2.34 µM in the experiment with MOLT-4 leukemia; 2.26 µM in the experiment with COLO 205 colon; 1.74 µM in the experiment with SF-539 CNS; 1.78 µM in the experiment with OVCAR-3 ovarian; 1.7 µM with ACHN renal; 2.02 µM in the experiment on HL-60(TB) leukemia. Besides, the TGI came to 6.17 µM in the experiment on MOLT-4 leukemia; 4.76 µM with COLO 205 colon; 3.26 µM in the experiment with SF-539 CNS; 3.29 µM in the experiment on OVCAR-3 ovarian; 3.06 µM in the experiment on ACHN renal; 4.51 µM with HL-60(TB) leukemia.

Consider `COC1OC(Cn2cc([N+](=O)[O-])nc2C)C(O)C(O)C1O` (configuration not stated), for which the TGI with MOLT-4 leukemia, in the experiment with HCT-15 colon, with COLO 205 colon, with M14 melanoma, in the experiment with OVCAR-3 ovarian and in the experiment with ACHN renal was greater than 100 µM in each case. Also, the TGI in the experiment on 786-0 renal was greater than 100 µM.

With `CC[C@]1(Cc2ccc(OC)c(OC)c2)C=[N+]([O-])O[C@H](OCc2ccccc2)[C@@H]1OC(C)=O`, the TGI in the experiment on MOLT-4 leukemia was 27.3 µM; with HCT-15 colon it was greater than 100 µM; with COLO 205 colon, 34.5 µM; in the experiment on M14 melanoma, greater than 100 µM; in the experiment with OVCAR-3 ovarian, 42.5 µM; with ACHN renal, greater than 100 µM. Besides, the TGI is 53.8 µM in the experiment with NCI-H226 lung, greater than 100 µM with 786-0 renal, greater than 100 µM in the experiment on TK-10 renal and 36.3 µM with HL-60(TB) leukemia.

On to `O=C(NC(CCCCN1C(=O)c2ccccc2C1=O)P(=O)(Oc1ccccc1)Oc1ccccc1)OCc1ccccc1` (configuration not stated), for which the TGI in the experiment on COLO 205 colon, in the experiment on M14 melanoma, in the experiment on SF-539 CNS, with OVCAR-3 ovarian, with ACHN renal and in the experiment on NCI-H226 lung was greater than 100 µM throughout. Also, the TGI in the experiment on 786-0 renal and in the experiment on TK-10 renal was greater than 100 µM throughout.

For `O=c1[nH]c(=O)n(C2CC(O)C(COP(=O)(OCC(Cl)(Cl)Cl)OCC(Cl)(Cl)Cl)O2)cc1F` (configuration not stated), the TGI in the experiment on MOLT-4 leukemia, in the experiment on HCT-15 colon, with COLO 205 colon, with M14 melanoma, in the experiment on OVCAR-3 ovarian and in the experiment on ACHN renal was greater than 100 µM each time. Besides, the TGI in the experiment on NCI-H226 lung was greater than 100 µM; in the experiment on 786-0 renal it was greater than 100 µM; with TK-10 renal, greater than 100 µM; in the experiment with HL-60(TB) leukemia, 51 µM.

For `O=C1c2c(O)cccc2Cc2cc(CO)cc(O)c21`, the TGI with MOLT-4 leukemia came to 57.9 µM; in the experiment on HCT-15 colon it was 11.3 µM; with COLO 205 colon, 4.9 µM; with M14 melanoma it was 10.9 µM; with OVCAR-3 ovarian, 5.03 µM; in the experiment with ACHN renal it was 12.4 µM. The TGI in the experiment with NCI-H226 lung was determined as 17.3 µM; in the experiment on 786-0 renal, 11.4 µM; with TK-10 renal, 14.9 µM; in the experiment on HL-60(TB) leukemia, 3.1 µM.

Regarding `COc1cccc(CCn2c(N)c(C#N)c3ccc([N+](=O)[O-])cc3c2=O)c1`, the TGI is greater than 31.6 µM in the experiment with MOLT-4 leukemia; greater than 31.6 µM with HCT-15 colon; greater than 100 µM with COLO 205 colon; greater than 31.6 µM with M14 melanoma; greater than 31.6 µM with OVCAR-3 ovarian; greater than 46.4 µM in the experiment on ACHN renal. For the same molecule, the TGI in the experiment on NCI-H226 lung is greater than 31.6 µM; with 786-0 renal, greater than 46.4 µM; in the experiment on TK-10 renal, greater than 46.4 µM; with HL-60(TB) leukemia it was greater than 46.4 µM.

For `COc1cc(/C=N/n2c(C)n[nH]c2=O)cc(OC)c1OC`, the TGI in the experiment with MOLT-4 leukemia, in the experiment with HCT-15 colon, in the experiment on COLO 205 colon, in the experiment on M14 melanoma, in the experiment with SF-539 CNS and with OVCAR-3 ovarian was greater than 100 µM throughout. Moreover, the TGI in the experiment with ACHN renal, in the experiment with NCI-H226 lung and in the experiment on 786-0 renal was greater than 100 µM in each case.

For `C[Si](C)(C)/C=C/CN1C(=O)CCC1=O`, the TGI in the experiment on HCT-15 colon, in the experiment on COLO 205 colon, in the experiment with M14 melanoma, in the experiment on SF-539 CNS, in the experiment on OVCAR-3 ovarian and with ACHN renal was greater than 100 µM in each case. Moreover, the TGI in the experiment on TK-10 renal and in the experiment with HL-60(TB) leukemia was greater than 100 µM each time.

For `C[C@]12CC[C@H](O)CC1=CC[C@@H]1[C@@H]2CC[C@]2(C)NC(=O)/C(=C\c3ccccc3)C[C@@H]12`, the TGI with MOLT-4 leukemia came out at 98.5 µM; in the experiment with HCT-15 colon it was 37.8 µM; in the experiment with COLO 205 colon, 31.9 µM; with M14 melanoma, 29.2 µM; with SF-539 CNS, 30.2 µM; in the experiment on OVCAR-3 ovarian, 26.2 µM. Also, the TGI in the experiment with ACHN renal is 43.1 µM; in the experiment with NCI-H226 lung, 34.3 µM; in the experiment with 786-0 renal, 52 µM; in the experiment on TK-10 renal it was 83.2 µM.
